Results: patent publication US10941187B2 (The United States of America, as represented by the …, priority 2001, dated 2021)

Experiments:
[1] = Stability in human serum by MALDI mass spectrometry; type: in vitro ADME; conditions: 100% serum, 2 h at 37° C.
Protocol: Both compounds (100 μM, 100 μl ) were incubated in an equivalent volume of human serum at 37° C. for 2 h. In all cases, enzymatic reactions were quenched by the addition of trifluoroacetic acid (0.1% v/v final concentration). Samples were immediately analyzed using Matrix Assisted […] Desorption Ionisation-Time Of Flight (MALDI-TOF) mass spectrometry. A Micromass MALDI-TOF (Micromass, Beverly, Mass.) reflectron instrument was used at a laser energy of 15-25% over a mass range of 1000-6000 Da, with 5 laser shots summed per spectrum. Alpha-cyano-4-hydroxycinnamicacid (Sigma, St. Louis, Mo.) was used as a matrix and was prepared to a concentration of 10 mg/ml in a 8 mg/ml ammonium carbonate (Sigma, St. Louis, Mo.) buffer. One microlitre samples were diluted 50/50 v/v with matrix before being transferred to the MALDI plate.

Aβ1-40 [2] = experiment: Aβ1-40 sandwich ELISA of PC12 conditioned media; type: cell-based, rat; conditions: PC12 cells, relative to control cells
PC12 cells = experiment: Neurite outgrowth in PC12 cells; type: cell-based, rat; conditions: low serum medium
Protocol: Three dishes for each treatment condition were prepared. Treatments began 24 hours after seeding, once cells were well attached.
PC12 cells were grown on 60 mm dishes as above and cultured for four days. During this time neurite outgrowth was quantified daily. Five random fields of cells were evaluated per dish and the proportion of neurite-bearing cells was determined. Approximately 100 cells per field were scored for neurites equal to or greater in length than that of the cell body. A cell was only scored once, although it may have had more than one process per cell.

synaptophysin = experiment: Synaptophysin expression in PC12 cells (Western blot); type: cell-based, rat; conditions: PC12 cell lysates, relative to untreated
Protocol: The synaptophysin monoclonal antibody (Oncogene Research Products, San Diego Calif.), which stains neurosecretory vesicles of PC12 cells, was used. The membranes were blocked with 20 mM Tris, 500 mM NaCl pH 7.4, 1% (w/v) casein (BioRad, San Diego Calif.) at 37° C. for 1 hour. Primary antibody was diluted in block and incubated with the proteins overnight at 4° C. The membrane was vigorously washed with 20 mM Tris pH 7.4, 150 mM NaCl and 0.05% Tween-20 (TBST), three times for 15 minutes at room temperature. The peroxidase-linked secondary antibody in block was incubated with the membrane for 2 hours at room temperature. Peroxidase-linked anti-mouse IgM (Chemicon, Tenecula, Calif.) was used as the secondary antibody against synaptophysin. Excess antibody was washed off with three vigorous washes in TBST prior to incubation in ECL Plus (Amersham, Philadelphia, Pa.) for 5 minutes. The membrane was subsequently exposed to photographic film.

Beta-2/NeuroD = Beta-2/NeuroD expression in PC12 cells (Western blot); type: cell-based, rat; conditions: PC12 cell lysates
Excerpt: Beta-2/NeuroD plays a major role in both neuronal and pancreatic endocrine development. […] Beta-2 expression in pancreatic endocrine cells, the intestine and the brain, activates insulin gene transcription and can induce neurons to differentiate. Mutant mice lacking the functional Beta-2 gene have a striking reduction in the number of insulin-producing beta cells, fail to develop mature islets and as a consequence develop severe diabetes often resulting in perinatal death (Naya et al 1997). Thus, Beta-2/NeuroD is essential for in vivo pancreatic development and neuronal differentiation.
NeuroD production was determined by Western blot analysis using anti-NeuroD antibody as described above for synaptophysin antibody, except peroxidase-linked anti-goat IgG (Santa Cruz Biotechnology Inc.) was used as the secondary antibody. […] Indeed, Noma et al (1999) have shown that overexpression of NeuroD in transfected PC12 cells induced morphological changes such as neurite-like processes and synapse-like structures, without a differentiating-inducing agent such as NGF.

[3] = tested on: cultured hippocampal neurons; experiment: Glutamate-induced apoptotic cell death in hippocampal neurons (Hoechst 33342); type: cell-based, rat; conditions: GLP-1 10 nM
Protocol: The fluorescent DNA binding dye Hoescht 33342 was used to measure apoptotic cell death. […] Cells were fixed in a solution of 4% paraformaldehyde in PBS and membranes were permeabilized with 0.2% Trition X-100. Following incubation with Hoechst 33342 (1 μM) for 30 min, nuclei were visualized under epifluorescence illumination (340 nm excitation, 510 nm barrier filter) using a 40× oil-immersion objective. Approximately 200 cells were counted in at least three separate dishes for each treatment condition, and experiments were repeated at least twice. Cells were considered apoptotic if nuclear DNA was fragmented or condensed, whereas cells with nuclear DNA of a more diffuse and uniform distribution, were considered viable. At the time of counting, the investigator was unaware of the identity of the treatment groups. The percentage of cells with condensed or fragmented nuclei was determined in each culture.

Aβ1-40 [4] = experiment: Aβ1-40 in whole brain homogenates after i.c.v. infusion in control mice; type: in vivo, mouse; conditions: 48 h
Protocol: Lean db+/db+ control male mice (n=24) were anaesthetized with 50 mg/kg pentobarbitone and placed in a stereotaxic surgical frame with mouse adaptor (David Kopf Instruments, Tujunga, Calif.) using temporal bone cup holders. […] After 48 h all animals were sacrificed by cervical dislocation, the brains removed and rapidly frozen in liquid nitrogen. Brains were pulverized and stored at −80° C. prior to assaying for Aβ levels.
Equivalent volumes of conditioned media and whole brain homogenate were assayed for Aβ1-40 using a sandwich ELISA (Suzuki et. al., 1994). The monoclonal antibody BAN50 (raised against Aβ1-16) was used as the capture antibody for all species of Aβ (Aβ1-40 and Aβ1-42), and the monoclonal antibody BA27 was used to specifically detect Aβ1-40 levels. Levels of Aβ1-40 were expressed in pM concentrations for conditioned media samples and finol/g for the mouse brain homogenates, as deduced from the appropriate standard curve run in parallel with the assay.

[5] = tested on: cultured hippocampal cells; experiment: Survival of hippocampal neurons exposed to Aβ1-42 or Fe2+; type: cell-based, rat; conditions: 2 h pretreatment, then 2 μM Aβ (1-42) or 1 μM Fe2+ for 24 hours
Protocol: Hippocampi were removed from embryonic day 18 Sprague-Dawley rats, and cells were dissociated by mild trypsination and trituration and seeded onto polyethyleneimine-coated plastic 35 mm diameter dishes at a density of approximately 150 cells/mm^2 of culture surface. Cultures-were maintained in Neurobasal medium containing B-27 supplements (Gibco BRL, Carlsbad, Calif.), 2 mM L-glutamine, 1 mM Hepes and 0.001% gentamicin sulfate (Sigma, St. Louis, Mo.) in a 6% CO2/94% room air atmosphere at 37° C. When maintained under these conditions, the hippocampal cultures consisted of approximately 95% neurons and 5% astrocytes as determined by immunostaining with antibodies against the neuronal antigen NeuN and the astrocyte protein glial fibrillary acidic protein. Aβ1-42 was purchased from Bachem (Torrance, Calif.) and was prepared as a 1 mM stock solution in sterile water. FeSO4 was prepared as a 200 μM stock in sterile water.
Neuronal survival was quantified as described previously (Mark et. al., 1997). Briefly, viable neurons in premarked fields (10× objective) were counted before experimental treatment and at specified time points thereafter. […] Cultures were then exposed to 2 μM Aβ (1-42) or 1 μM Fe^2+ for 24 hours. […]

Fischer-344 rats = experiment: Ibotenic acid induced cholinergic marker deficit, i.c.v. infusion
[6] = tested on: β-amyloid precursor protein (βAPP); experiment: Western immunoblot of βAPP (cell lysates) and sAPP (conditioned media) in PC12 cells; conditions: day 3, relative to untreated

In the case of `CC[C@H](C)[C@H](NC(=O)[C@H](Cc1ccccc1)NC(=O)[C@H](CCC(=O)O)NC(=O)[C@H](CCCCN)NC(=O)[C@H](C)NC(=O)[C@H](C)NC(=O)[C@H](CCC(N)=O)NC(=O)CNC(=O)[C@H](CCC(=O)O)NC(=O)[C@H](CC(C)C)NC(=O)[C@H](Cc1ccc(O)cc1)NC(=O)[C@H](CO)NC(=O)[C@H](CO)NC(=O)[C@@H](NC(=O)[C@H](CC(=O)O)NC(=O)[C@H](CO)NC(=O)[C@@H](NC(=O)[C@H](Cc1ccccc1)NC(=O)[C@@H](NC(=O)CNC(=O)[C@H](CCC(=O)O)NC(=O)[C@H](C)NC(=O)[C@@H](N)Cc1c[nH]cn1)[C@@H](C)O)[C@@H](C)O)C(C)C)C(=O)N[C@@H](C)C(=O)N[C@@H](Cc1c[nH]c2ccccc12)C(=O)N[C@@H](CC(C)C)C(=O)N[C@H](C(=O)N[C@@H](CCCCN)C(=O)NCC(=O)N[C@@H](CCCNC(=N)N)C(N)=O)C(C)C` [GLP-1, glucagon-like peptide-1], the “stability in human serum (N-terminal truncated product by MALDI)” value [1] is reported as “considerable increase in the amount of N-terminal truncated product”, the “Aβ1-40 levels in conditioned media” value (Aβ1-40 [2]) is reported as “did not significantly alter levels of Aβ1-40 production” and the “differentiation / neurite outgrowth” value (PC12 cells) is reported as “produced similar effects on differentiation to those induced by NGF”. The synaptophysin expression (synaptophysin) was “dramatically reduced the expression of the synaptophysin protein”, the “Beta-2/NeuroD expression (43 kDa band)” value (Beta-2/NeuroD) was “increased following GLP-1 treatment” and the “apoptotic cells, concurrent treatment with glutamate” value ([3]; 10 μM glutamate overnight, exendin-4 0.3 μM (medium alone 23%, glutamate 73%)) was 24%. The “protection against apoptotic effects of glutamate” value ([3]; 10 μM glutamate, exendin-4 0.3 μM) was “completely protected”, the “apoptotic cells, peptide alone” value ([3]; exendin-4 0.3 μM, no glutamate) was 20% and the “reduction of Aβ1-40 levels compared to vehicle” value (Aβ1-40 [4]; 3.3 μg GLP-1 i.c.v., not significant) was 16%. For the same compound, the “reduction of Aβ1-40 levels compared to vehicle” value (Aβ1-40 [4]; 6.6 μg GLP-1 i.c.v., p<0.01) was 36%, the “concentration of maximum protective effect against death induced by Aβ1-42 and Fe2+” value [5] was 10 nM and the “Abercrombie corrected ChAT-positive cell counts, Left basal nucleus (lesion side)” value (Fischer-344 rats; Lesion (ibotenic acid)) was 404 ± 59. For the same compound, the “Abercrombie corrected ChAT-positive cell counts, Right basal nucleus (infusion side)” value (Fischer-344 rats; Lesion (ibotenic acid)) was 423 ± 45, the “Abercrombie corrected ChAT-positive cell counts, Left basal nucleus (lesion side)” value (Fischer-344 rats; Sham) was 517 ± 50 and the “Abercrombie corrected ChAT-positive cell counts, Right basal nucleus (infusion side)” value (Fischer-344 rats; Sham) was 499 ± 41. For the same compound, the “food and water intake, body weight during infusion” value (Fischer-344 rats; i.c.v. minipump infusion) was “modestly aphagic and adipsic”, the “loss of ChAT-immunoreactive cell bodies in left basal nucleus below that of the right basal nucleus” value (Fischer-344 rats; ibotenic acid lesion, 14 days i.c.v. infusion (vehicle 43%)) was 6% and the “intracellular levels of βAPP (cell lysates)” value [6] was “significantly decreased intracellular levels of βAPP”.
